According to patent US12594268B2, “Methods of treating Fabry disease in patients having a mutation in the GLA gene” (Amicus Therapeutics, Inc., priority 2018, dated 2026):
Where a chain is given by its changes, count along the chain named.

Tests used:
Type in all cases: cell-based
[1] = target: T1, α-Gal A mutant form K391E (Homo sapiens, UniProt P06280, K391E); experiment: α-Gal A activity in lysates of transfected HEK-293 cells, K391E
T1 construct: expressed in transfected cells; host or cells: HEK-293
T1 sequence (P06280 32-429 K391E): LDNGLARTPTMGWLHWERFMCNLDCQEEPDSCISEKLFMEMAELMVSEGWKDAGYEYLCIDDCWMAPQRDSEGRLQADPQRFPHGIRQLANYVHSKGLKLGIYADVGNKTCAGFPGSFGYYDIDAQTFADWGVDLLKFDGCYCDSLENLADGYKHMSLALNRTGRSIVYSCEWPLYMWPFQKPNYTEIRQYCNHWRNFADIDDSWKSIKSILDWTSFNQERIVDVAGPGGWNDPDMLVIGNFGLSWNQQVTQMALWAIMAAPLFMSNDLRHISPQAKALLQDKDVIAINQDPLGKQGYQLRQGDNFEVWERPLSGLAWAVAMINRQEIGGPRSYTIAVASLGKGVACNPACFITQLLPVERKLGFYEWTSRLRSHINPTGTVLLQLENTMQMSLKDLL
Description: (§1) Baseline and 10 μM migalastat α-Gal A activity: Differences in the α-Gal A activity between lysates incubated in the absence and presence of 10 μM migalastat were determined using a one-tailed, Mann Whitney U test; an increase at 10 μM migalastat with a p<0.05 was considered significant.
(§2) 10 μM migalastat α-Gal A activity (% WT)=(α-Gal A activity in mutant transfected cell lysates incubated with 10 μM migalastat÷α-Gal A activity in wild-type transfected cell lysates without migalastat)*100.
(§3) Absolute increase (% WT)=is the 10 μM migalastat α-Gal A activity (% WT) minus the baseline α-Gal A activity (% WT).
(§4) Relative increase is the 10 μM migalastat α-Gal A activity in mutant transfected cell lysates÷baseline α-Gal A activity in mutant transfected cell lysates incubated without migalastat.

[2] = target: T2, α-Gal A mutant form S62delinsLA (Homo sapiens, UniProt P06280, INS61L/S62A); experiment: α-Gal A activity in lysates of transfected HEK-293 cells, S62delinsLA
T2 construct: expressed in transfected cells; host or cells: HEK-293
T2 sequence (P06280 with tags, fused parts or gaps INS61L/S62A): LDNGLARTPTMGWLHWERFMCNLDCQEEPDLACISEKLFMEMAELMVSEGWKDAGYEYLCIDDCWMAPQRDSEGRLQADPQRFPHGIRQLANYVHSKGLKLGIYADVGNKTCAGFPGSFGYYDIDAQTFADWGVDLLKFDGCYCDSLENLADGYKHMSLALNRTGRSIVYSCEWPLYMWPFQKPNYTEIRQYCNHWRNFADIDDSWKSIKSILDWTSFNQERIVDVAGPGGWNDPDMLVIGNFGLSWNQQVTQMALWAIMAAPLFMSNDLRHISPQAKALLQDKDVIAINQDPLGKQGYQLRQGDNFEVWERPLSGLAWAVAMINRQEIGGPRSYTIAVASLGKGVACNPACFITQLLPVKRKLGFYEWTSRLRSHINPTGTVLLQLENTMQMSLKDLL
Description: as §1, §2, §3, §4

[3] = target: T3, α-Gal A mutant form G80V (Homo sapiens, UniProt P06280, G80V); experiment: α-Gal A activity in lysates of transfected HEK-293 cells, G80V
T3 construct: expressed in transfected cells; host or cells: HEK-293
T3 sequence (P06280 32-429 G80V): T1 sequence (P06280 32-429 K391E) with G49V, E360K
Description: as §1, §2, §3, §4

[4] = target: T4, α-Gal A mutant form A257V (Homo sapiens, UniProt P06280, A257V); experiment: α-Gal A activity in lysates of transfected HEK-293 cells, A257V
T4 construct: expressed in transfected cells; host or cells: HEK-293
T4 sequence (P06280 32-429 A257V): T1 sequence (P06280 32-429 K391E) with A226V, E360K
Description: as §1, §2, §3, §4

[5] = target: T5, α-Gal A mutant form A156S (Homo sapiens, UniProt P06280, A156S); experiment: α-Gal A activity in lysates of transfected HEK-293 cells, A156S
T5 construct: expressed in transfected cells; host or cells: HEK-293
T5 sequence (P06280 32-429 A156S): T1 sequence (P06280 32-429 K391E) with A125S, E360K
Description: as §1, §2, §3, §4

[6] = 10 μM migalastat minus baseline
[7] = 10 μM migalastat ÷ baseline activity
[8] = HEK-293 lysates, 10 μM migalastat, 5 days, mean ± SEM

In the case of `OC[C@H]1NC[C@H](O)[C@@H](O)[C@H]1O` [migalastat, (2R,3S,4R,5S)-2-(hydroxymethyl) piperdine-3,4,5-triol], the “Absolute increase (% WT)” value [1, 6] is reported as 20.0 % WT, the Relative increase [1, 7] is reported as 2.03 and the “10 μM migalastat α-Gal A activity” value [1, 8] is reported as 15979 ± 1367 nmol/mg/h. The “10 μM migalastat α-Gal A activity (% WT)” value [1, 8] was 40.4 ± 2.9 % WT, the “Absolute increase (% WT)” value [2, 6] was 20.9 % WT and the Relative increase [2, 7] was 50.92. For the same compound, the “10 μM migalastat α-Gal A activity” value [2, 8] was 8115 ± 810 nmol/mg/h, the “10 μM migalastat α-Gal A activity (% WT)” value [2, 8] was 21.3 ± 1.7 % WT and the “Absolute increase (% WT)” value [3, 6] was 4.3 % WT. For the same compound, the Relative increase [3, 7] was 3.18, the “10 μM migalastat α-Gal A activity” value [3, 8] was 2434 ± 333 nmol/mg/h and the “10 μM migalastat α-Gal A activity (% WT)” value [3, 8] was 6.4 ± 0.6 % WT. For the same compound, the “Absolute increase (% WT)” value [4, 6] was 44.4 % WT, the Relative increase [4, 7] was 1.85 and the “10 μM migalastat α-Gal A activity” value [4, 8] was 30313 ± 1981 nmol/mg/h. The “10 μM migalastat α-Gal A activity (% WT)” value [4, 8] was 99.9 ± 4.6 % WT, the “Absolute increase (% WT)” value [5, 6] was 18.4 % WT and the Relative increase [5, 7] was 1.29. For the same compound, the “10 μM migalastat α-Gal A activity” value [5, 8] was 31597 ± 2293 nmol/mg/h and the “10 μM migalastat α-Gal A activity (% WT)” value [5, 8] was 85.1 ± 53 % WT.
